From paper PMC7485140 (Clinical Pharmacology and Therapeutics, 2020)
Where two headings read alike, the source gives them in different places. Starred links: 1 amine or outer side, 2 acyl side, 3 side chain; linkers in the order of their positions; H or OH if unused. Positions of bridges follow the written chain, without caps; N, C: chain ends. Non-standard residues stand in square brackets, D forms with d. Residues, ends and D or L forms follow the SMILES beside them. *: point of attachment. pTerphenylCO(4''-OnC5H11) = CCCCCOc1ccc(-c2ccc(-c3ccc(C(=O)*)cc3)cc2)cc1; Orn(4R-OH,5R-OH) = O=C([C@H](C[C@@H](O)[C@@H](O)N[*:3])N[*:1])[*:2]; hTyr(3S-OH,4S-OH) = N[C@H](C(=O)O)[C@H](O)[C@@H](O)c1ccc(O)cc1; Pro(3S-OH,4S-Me) = C[C@H]1CN[C@H](C(=O)O)[C@H]1O; Hyp = O=C(O)[C@@H]1C[C@@H](O)CN1

Tests used:
[1] = cited from earlier work
[2] = cited from earlier work; remark: listed apart in the source
[3] = Pooled population PK analysis of i.v. anidulafungin; type: in vivo, human; details: patients aged 1 month to < 2 years, n = 23, i.v. LD/MD 3.0/1.5 mg/kg q.d., weight-corrected, final PK model; for Vd: Vss
[4] = adult patients with serious fungal infections; cited from earlier work
[5] = infant patients at high risk for invasive fungal infections
[6] = neonatal patients at high risk for invasive fungal infections

CCCCCOc1ccc(-c2ccc(-c3ccc(C(=O)N[C@H]4C[C@@H](O)[C@@H](O)NC(=O)[C@@H]5[C@@H](O)[C@@H](C)CN5C(=O)[C@H]([C@@H](C)O)NC(=O)[C@H]([C@H](O)[C@@H](O)c5ccc(O)cc5)NC(=O)[C@@H]5C[C@@H](O)CN5C(=O)[C@H]([C@@H](C)O)NC4=O)cc3)cc2)cc1 [anidulafungin] ({pTerphenylCO(4''-OnC5H11)}-[Orn(4R-OH,5R-OH)]T[Hyp][hTyr(3S-OH,4S-OH)]T[Pro(3S-OH,4S-Me)]; lactam 1-C)
mean CL [1, 5]: 0.015 L/h/kg | mean Vss [1, 5]: 0.9 L/kg | median AUCss [1, 5]: 97.7 µg·h/mL | mean CL [1, 6]: 0.020 L/h/kg | mean Vss [1, 6]: 1.7 L/kg | median AUCss [1, 6]: 74.9 µg·h/mL | chemical stability in blood ([2]; blood at physiologic temperature and pH): slow chemical degradation | hepatic metabolism [2]: not metabolized by the liver | renal CL ([2]; negligible renal clearance): < 1% | clearance ([3]; human, plasma, iv, CL, Mean (SD), SD): 0.021 L/h/kg | Vd ([3]; human, plasma, iv, Mean (SD), SD): 0.77 L/kg | Vd ([3]; human, plasma, iv, Median (range)): 0.75 L/kg | CL, Median (range) [3]: 0.021 (0.006–0.032) L/hour/kg | mean CL [4]: 1.0 L/h
